Measured values reported in US4104389A, “Antiallergic pyrido[2,1-b]quinazolin-ones” (Warner-Lambert Company, priority 1977, dated 1978).
Read-outs that look alike come from different tables or passages of the source.

Columns and labels:
[1] = tested on: antibody-antigen reactions (PCA); experiment: PCA (rat), procedure of Herzig; reduction of allergic responses to antigen challenge; assay type: in vivo
Protocol: When tested in accordance with the procedure of Herzig [Immunopharmacology, M. E. Rosenthale and H. C. Mansmann, Eds., John Wiley and Son, N.Y., 1975], these compounds as shown in Table I may be administered orally, parenterally, or by aerosol at a dose of 0.005-20mg/kg. Compounds of this invention are useful in the management of allergic reactions such as bronchial asthma.

[2] = Netherlands Pat. No. 6,414,717; cited from earlier work
[3] = rat, iv., read-out: ED50 - PCA (rat) iv.

Row | SMILES | activity when given intravenously ([1]; intravenously) | activity when given orally ([1]; orally) | ED50 ([1]; rat, ip., read-out: ED50 - PCA (rat) ip.) [mg/kg] | ED50 [1, 3] [mg/kg] | ED50 ([1]; rat, po., read-out: ED50 - PCA (rat) po.) [mg/kg] | activity compared with isomers of the invention ([1]; comparison in words, Table I) | PCA (rat) inhibition, ip. ([1]; rat, ip., 10mg/kg) [%] | PCA (rat) activity, po., in words ([1]; rat, po., 10mg/kg) | anti-inflammatory action [2] | ED50 - PCA (rat) ip., in words ([1]; rat, ip., dose not given) | ED50 - PCA (rat) po., in words ([1]; rat, po., dose not given)
1 | O=C(O)c1ccc2nc3ccccc3c(=O)n2c1 [Example 1, 11-oxo-11H-pyrido[2,1-b]quinazoline-8-carboxylic acid] | active | active | 2 | 0.2 | 2 |  |  |  |  |  | 
2 | O=C(O)c1cccn2c(=O)c3ccccc3nc12 [Example 799] |  |  |  |  |  | less active | 21 | inactive | possesses anti-inflammatory action |  | 
3 | O=C(O)c1cc(=O)c2c(OCC(O)COc3cccc4oc(C(=O)O)cc(=O)c34)cccc2o1 [Intal] |  |  |  | 1 to 2 |  |  |  |  |  | inact. | inactive
